This passage reports IC50, EC50 and GI50 results from patent US20230027026A1, “FUSED PYRIMIDINE COMPOUNDS, COMPOSITIONS AND MEDICINAL APPLICATIONS THEREOF” (JUBILANT BIOSYS LIMITED, priority 2019, published 2023).

One experiment deals with T1, EGFR (T790M/L858R) (Homo sapiens, UniProt P00533, L858R/T790M).
T1 construct: GST; purchased Proqinase
Description: EGFR L858R/T790M enzyme inhibition assay (HTRF). Type of experiment: biochemical. The note with it: 5 μM ATP, 60 min, read-out: EGFR_L858R T790M_IC50_nM. As for the experimental part: Example 2: EGFR L858R & Del19/T790M Assay Protocol (to Find the IC50 for the Compounds Using HTRF Method)
Reagents for Enzyme Assay:
• 1. Enzyme Assay Buffer: 60 mM HEPES (pH 7.4), 50 mM NaCl, 20 mM MgCl2, 5 mM MnCl2, filtered using 0.2 μm pore size, stored at 4° C. • Supplements (added fresh to the enzyme buffer): 1M DTT stock was made, 5% BSA stock and 0.1M Na3OV4 stored at 4° C. Enzyme assay buffer 50 mL, 1 M DTT 100 μL, 5% BSA 500 μL, 0.1 M Na3OV4 50 μL. • 2. GST-hEGFR (L858R), active: EGFR (T790M/L858R), active (Proqinase), 3.6 μM stock; 2.5 nM in final assay. • 3. Gastrin Precusor-Biotinylated: Gastrin precursor (Tyr87) biotinylated peptide, EEAY*GWM, Cell Signaling Tech 1310, Lot-7, Want final 0.5 μM in assay. • 4. ATP: 10 mM stock in 100 μL Enzyme assay buffer pH 7.4 prepared freshly, want 5 μM in final assay. • 5. Test compounds: Powders were dissolved in 100% DMSO and made up to a final stock concentration of 10 mM (volume in μL to add for 10 mM=mg powder X 10^5/MW). Final compound concentration in the assay plate started at 10 μM.
• 1. HTRF buffer: 50 mM Tris —HCl, pH-7.5, 100 mM NaCl, 0.1% BSA, 0.05% Tween20, 0.5 mM EDTA, filtered using 0.2 μm pore size, stored at 4° C. • Phycolink® Streptavidin-Allophycocyanin (SA-APC) Prozyme, Cat. #PJ25S, Lot #896 085, 2.06 mg/mL, APC concentration is 11.6 μM, streptavidin concentration is 15.5 μM. Want 12 nM final in assay (based on streptavidin concentration). • 2. (Europium) Eu-W1024 Anti-phosphotyrosine (PT-66) Antibody: Perkin Elmer (Product Number: AD0068), monoclonal IgG1 that recognizes phosphotyrosine peptide 100 μg/ml stock. Want 0.1 nM final in assay.
• 1. The compound dilution was made by TECAN as per the above scheme. • 2. 16 μL of diluted compound was added to the assay plate by using TECAN. • 3. 10 μL of enzyme mix was added to each well except mins. • 4. 20 μL of substrate and ATP mix were added into each well of the assay plate, manually. • 5. The plate was incubated on a laboratory shaker at room temperature for 60 min. • 6. Meanwhile, the HTRF mix was prepared and 75 μL was added to the HTRF plate. • 7. When the incubation was over, 10 μL of the reaction mixture was transferred to the HTRF assay plate and incubated on a laboratory shaker for 30 min at room temperature. • 8. The reading was taken in Pherastar (ext 337 nm, Em 665 & 620 nm). • 9. The results were analyzed using Graphpad prism after calculation of the z factor, signal window and % inhibition to get the IC50.
(In general: In TR-FRET formats the signal depends on donor and acceptor labels being close together.)

For experiment [1], the system named is H1975 cells (L858R_T790M mutant). The experiment in a line: H1975 proliferation assay. Type of experiment: cell-based. The note with it: Homo sapiens, NCI-H1975; read-out: Proliferation_Assay H1975 cells-EC50_nM L858R_T790M_mutant.
A further experiment has as its system A431 cells. Description: Cellular proliferation (Alamar Blue) assay, A431. Type of experiment: cell-based. The note with it: Homo sapiens, A-431; A431 cells, 72 hr, Alamar Blue; read-out: A431 IC50. In outline: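 Seventy-two-hour growth assay with 3-fold compound titration (final 10–0.0005 μM) and Alamar Blue fluorescence end point, ex 540/em 590 nm.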
Experiment [2] deals with EGFR (A767_dupASV) expressing Ba/F3 stable cell line (Homo sapiens, UniProt P00533, DUP767-769, cells depend on it). The experiment in a line: Cellular proliferation (Alamar Blue) assay, EGFR A767_dupASV Ba/F3. Type of experiment: cell-based. To be noted: EGFR A767_dupASV Ba/F3, 72 hr, read-out: A767 IC50. In outline: (§1)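 Fluorescence read-out (ex 540/em 590 nm) after 3 h Alamar Blue incubation, following 72 h compound exposure at 37 °C, 5% CO2. Final compound range 10–0.0005 μM, 3-fold steps; Ba/F3 cells plated 15,000/well in RPMI + 10% FBS overnight beforehand.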
Chain of EGFR (A767_dupASV) expressing Ba/F3 stable cell line (P00533 with tags, fused parts or gaps DUP767-769): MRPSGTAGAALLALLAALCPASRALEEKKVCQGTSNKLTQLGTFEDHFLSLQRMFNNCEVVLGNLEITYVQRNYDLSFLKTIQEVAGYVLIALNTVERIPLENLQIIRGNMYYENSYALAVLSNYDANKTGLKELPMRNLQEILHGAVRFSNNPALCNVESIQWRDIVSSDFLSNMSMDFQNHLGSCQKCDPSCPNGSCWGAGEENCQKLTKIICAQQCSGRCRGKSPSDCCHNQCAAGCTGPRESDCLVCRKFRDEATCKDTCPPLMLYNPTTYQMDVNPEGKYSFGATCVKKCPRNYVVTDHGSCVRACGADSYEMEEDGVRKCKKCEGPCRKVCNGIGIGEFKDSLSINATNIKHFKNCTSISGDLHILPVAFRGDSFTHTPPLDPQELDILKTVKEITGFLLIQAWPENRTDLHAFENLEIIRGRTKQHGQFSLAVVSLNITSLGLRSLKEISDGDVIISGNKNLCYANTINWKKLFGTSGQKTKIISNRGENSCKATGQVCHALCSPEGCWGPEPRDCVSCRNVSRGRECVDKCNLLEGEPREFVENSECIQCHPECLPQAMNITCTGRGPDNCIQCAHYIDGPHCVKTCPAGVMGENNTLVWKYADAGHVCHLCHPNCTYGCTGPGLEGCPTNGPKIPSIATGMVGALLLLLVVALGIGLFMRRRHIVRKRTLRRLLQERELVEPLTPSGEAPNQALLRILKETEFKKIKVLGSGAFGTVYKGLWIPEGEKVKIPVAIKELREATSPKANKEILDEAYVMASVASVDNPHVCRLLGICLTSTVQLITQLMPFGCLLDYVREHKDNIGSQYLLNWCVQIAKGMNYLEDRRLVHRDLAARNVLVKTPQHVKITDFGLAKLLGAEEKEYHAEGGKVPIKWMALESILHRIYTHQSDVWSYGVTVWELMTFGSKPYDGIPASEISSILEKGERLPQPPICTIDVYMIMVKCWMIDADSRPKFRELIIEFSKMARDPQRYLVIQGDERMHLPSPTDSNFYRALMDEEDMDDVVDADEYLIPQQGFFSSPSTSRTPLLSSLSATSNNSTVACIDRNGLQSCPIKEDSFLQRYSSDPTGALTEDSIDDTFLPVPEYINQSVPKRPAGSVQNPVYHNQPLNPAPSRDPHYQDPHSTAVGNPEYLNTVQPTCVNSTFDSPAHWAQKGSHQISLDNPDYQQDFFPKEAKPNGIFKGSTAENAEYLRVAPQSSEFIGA
On the technique in general: Alamar Blue is a resazurin reagent that responds to reducing activity.

For experiment [3], the target named is EGFR(D770_N771insSVD) expressing Ba/F3 stable cell line (Homo sapiens, UniProt P00533, DUP768-770, cells depend on it). Description: Cellular proliferation (Alamar Blue) assay, EGFR D770_N771insSVD Ba/F3. The note with it: EGFR D770_N771insSVD Ba/F3, 72 hr, read-out: D770 IC50. Type of experiment: cell-based. In outline: as §1
Chain of EGFR(D770_N771insSVD) expressing Ba/F3 stable cell line (P00533 with tags, fused parts or gaps DUP768-770): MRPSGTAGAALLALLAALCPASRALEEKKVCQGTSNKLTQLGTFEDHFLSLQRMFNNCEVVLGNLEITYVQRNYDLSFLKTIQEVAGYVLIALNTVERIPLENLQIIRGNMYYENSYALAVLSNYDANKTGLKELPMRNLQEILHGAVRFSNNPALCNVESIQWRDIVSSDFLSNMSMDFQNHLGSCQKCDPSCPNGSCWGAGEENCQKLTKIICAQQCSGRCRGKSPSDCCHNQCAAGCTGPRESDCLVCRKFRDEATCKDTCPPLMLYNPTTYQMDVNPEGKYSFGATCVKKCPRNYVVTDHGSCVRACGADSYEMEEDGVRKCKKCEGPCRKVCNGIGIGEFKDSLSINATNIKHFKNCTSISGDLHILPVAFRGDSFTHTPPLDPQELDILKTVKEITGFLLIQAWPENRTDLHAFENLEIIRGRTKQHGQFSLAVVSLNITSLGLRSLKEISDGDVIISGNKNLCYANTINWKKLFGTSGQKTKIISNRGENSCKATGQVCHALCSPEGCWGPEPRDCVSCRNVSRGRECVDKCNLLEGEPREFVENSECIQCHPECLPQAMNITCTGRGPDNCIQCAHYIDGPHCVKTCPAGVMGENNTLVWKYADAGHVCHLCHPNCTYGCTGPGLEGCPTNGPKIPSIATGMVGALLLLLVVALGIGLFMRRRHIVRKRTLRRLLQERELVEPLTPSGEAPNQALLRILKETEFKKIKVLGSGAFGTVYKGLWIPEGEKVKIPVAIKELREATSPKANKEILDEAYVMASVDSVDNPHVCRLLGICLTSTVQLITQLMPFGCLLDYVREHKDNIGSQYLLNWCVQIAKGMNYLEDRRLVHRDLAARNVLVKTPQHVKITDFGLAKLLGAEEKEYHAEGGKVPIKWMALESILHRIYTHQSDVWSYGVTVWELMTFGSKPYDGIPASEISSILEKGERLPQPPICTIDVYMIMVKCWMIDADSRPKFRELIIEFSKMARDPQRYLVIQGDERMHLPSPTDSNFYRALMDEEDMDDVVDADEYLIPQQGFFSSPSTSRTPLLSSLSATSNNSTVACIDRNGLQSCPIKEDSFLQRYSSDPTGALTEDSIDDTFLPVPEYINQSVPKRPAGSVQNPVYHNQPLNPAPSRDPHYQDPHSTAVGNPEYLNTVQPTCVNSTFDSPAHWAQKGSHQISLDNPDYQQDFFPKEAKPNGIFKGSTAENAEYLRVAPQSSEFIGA
For experiment [4], the target named is HER2 (A775_G776insYVMA) expressing Ba/F3 stable cell line (Homo sapiens, UniProt P04626, DUP772-775, cells depend on it). Description: Cellular proliferation (Alamar Blue) assay, HER2 YVMA Ba/F3. Type of experiment: cell-based. The note with it: HER2 A775_G776insYVMA Ba/F3, 72 hr, read-out: YVMA IC50. In outline: as §1
Chain of HER2 (A775_G776insYVMA) expressing Ba/F3 stable cell line (P04626 with tags, fused parts or gaps DUP772-775): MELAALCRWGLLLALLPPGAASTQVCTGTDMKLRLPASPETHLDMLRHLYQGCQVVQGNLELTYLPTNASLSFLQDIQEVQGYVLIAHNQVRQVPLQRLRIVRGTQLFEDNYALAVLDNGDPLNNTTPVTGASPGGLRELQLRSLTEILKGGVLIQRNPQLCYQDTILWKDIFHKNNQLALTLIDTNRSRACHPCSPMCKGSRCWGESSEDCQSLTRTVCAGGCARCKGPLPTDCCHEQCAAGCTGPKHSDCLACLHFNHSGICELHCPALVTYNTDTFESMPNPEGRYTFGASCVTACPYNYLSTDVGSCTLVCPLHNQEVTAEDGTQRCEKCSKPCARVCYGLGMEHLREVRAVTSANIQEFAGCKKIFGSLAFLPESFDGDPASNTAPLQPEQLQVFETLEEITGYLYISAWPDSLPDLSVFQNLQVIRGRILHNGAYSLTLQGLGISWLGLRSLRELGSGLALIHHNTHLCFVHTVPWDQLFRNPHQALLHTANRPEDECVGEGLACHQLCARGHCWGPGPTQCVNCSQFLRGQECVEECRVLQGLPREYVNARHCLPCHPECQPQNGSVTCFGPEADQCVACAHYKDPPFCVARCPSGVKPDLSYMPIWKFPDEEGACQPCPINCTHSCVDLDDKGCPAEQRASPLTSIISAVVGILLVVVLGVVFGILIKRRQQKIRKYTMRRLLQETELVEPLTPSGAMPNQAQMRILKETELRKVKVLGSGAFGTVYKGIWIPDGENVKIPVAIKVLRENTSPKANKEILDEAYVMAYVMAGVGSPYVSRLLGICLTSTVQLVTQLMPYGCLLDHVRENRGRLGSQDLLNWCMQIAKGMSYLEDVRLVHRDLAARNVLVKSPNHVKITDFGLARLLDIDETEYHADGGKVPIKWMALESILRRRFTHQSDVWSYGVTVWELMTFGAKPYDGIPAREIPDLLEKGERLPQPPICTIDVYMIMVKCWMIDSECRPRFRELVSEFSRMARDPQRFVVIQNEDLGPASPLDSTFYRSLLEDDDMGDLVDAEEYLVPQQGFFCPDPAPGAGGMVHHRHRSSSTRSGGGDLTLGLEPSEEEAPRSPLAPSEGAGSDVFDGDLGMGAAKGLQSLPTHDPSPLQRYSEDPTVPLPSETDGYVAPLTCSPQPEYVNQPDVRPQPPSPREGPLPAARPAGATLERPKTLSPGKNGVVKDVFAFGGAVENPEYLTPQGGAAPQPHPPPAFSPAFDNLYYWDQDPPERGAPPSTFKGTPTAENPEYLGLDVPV

Structures can show the parent of a compound that is named as a salt. Where only a bound is given, the exact number is not on record here.

T1 sequence (P00533 25-1210 T790M/L858R): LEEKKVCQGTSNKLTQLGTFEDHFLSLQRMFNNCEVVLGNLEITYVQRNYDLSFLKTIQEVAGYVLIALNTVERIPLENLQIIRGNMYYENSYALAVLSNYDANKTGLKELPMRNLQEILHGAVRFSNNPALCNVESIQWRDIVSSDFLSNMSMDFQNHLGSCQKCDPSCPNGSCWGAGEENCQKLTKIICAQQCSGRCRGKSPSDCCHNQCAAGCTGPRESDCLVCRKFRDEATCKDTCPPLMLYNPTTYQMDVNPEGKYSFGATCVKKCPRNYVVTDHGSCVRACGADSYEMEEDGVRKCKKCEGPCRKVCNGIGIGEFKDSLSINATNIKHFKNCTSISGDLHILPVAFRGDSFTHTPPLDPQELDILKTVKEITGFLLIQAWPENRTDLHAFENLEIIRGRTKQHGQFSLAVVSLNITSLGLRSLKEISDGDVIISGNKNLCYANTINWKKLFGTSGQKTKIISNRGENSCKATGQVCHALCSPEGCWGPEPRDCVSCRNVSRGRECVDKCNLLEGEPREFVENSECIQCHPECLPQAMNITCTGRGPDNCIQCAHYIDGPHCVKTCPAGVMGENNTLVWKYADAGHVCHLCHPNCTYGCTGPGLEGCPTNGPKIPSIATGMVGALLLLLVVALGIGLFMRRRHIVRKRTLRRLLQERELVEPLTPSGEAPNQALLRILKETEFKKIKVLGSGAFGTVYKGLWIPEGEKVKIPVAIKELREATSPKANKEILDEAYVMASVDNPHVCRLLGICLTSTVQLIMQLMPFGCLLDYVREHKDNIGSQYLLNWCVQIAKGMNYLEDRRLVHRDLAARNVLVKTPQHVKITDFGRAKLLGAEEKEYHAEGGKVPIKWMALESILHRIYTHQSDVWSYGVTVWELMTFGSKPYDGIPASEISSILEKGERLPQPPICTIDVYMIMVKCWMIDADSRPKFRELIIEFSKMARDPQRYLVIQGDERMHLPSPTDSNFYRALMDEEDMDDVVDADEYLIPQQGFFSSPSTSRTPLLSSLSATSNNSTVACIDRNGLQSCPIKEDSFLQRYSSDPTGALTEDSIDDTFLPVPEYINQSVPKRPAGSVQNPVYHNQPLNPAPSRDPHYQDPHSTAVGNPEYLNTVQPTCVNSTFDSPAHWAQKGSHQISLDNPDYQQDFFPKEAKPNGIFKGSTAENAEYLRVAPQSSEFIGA

In the case of `CC(c1ccccc1)N1Cc2cnc(Nc3cnn(C)c3)nc2N(c2cccc(NC(=O)/C=C/CN(C)C)c2)C1=O` (racemic) [Compound 10, (E)-4-(dimethylamino)-N-(3-(7-((1-methyl-1H-pyrazol-4-yl)amino)-2-oxo-3-(1-phenylethyl)-3,4-dihydropyrimido[4,5-d]pyrimidin-1(2H)-yl)phenyl)but-2-enamide], the IC50 at EGFR (T790M/L858R) stood at 4 nM; in the experiment with A431 cells, 638 nM. In addition, the EC50 in experiment [1] amounted to 4.5 nM. The GI50 in experiment [2] turned out to be 105 nM; in experiment [3] it was 108 nM.
For `C=CC(=O)N1CCC(N2C(=O)N(Cc3ccccc3)Cc3cnc(Nc4cn(C)nc4Cl)nc32)C1` (racemic) [Compound 37, 1-(1-acryloylpyrrolidin-3-yl)-3-benzyl-7-((3-chloro-1-methyl-1H-pyrazol-4-yl)amino)-3,4-dihydropyrimido[4,5-d]pyrimidin-2(1H)-one], the IC50 at EGFR (T790M/L858R) was 167 nM; with A431 cells, at least 10000 nM. In addition, in experiment [1], the EC50 amounted to 372 nM. For the same molecule, the GI50 in experiment [2] and in experiment [3] was at least 10000 nM each time.
Turning to `C=CC(=O)N1CC[C@H](N2C(=O)N(Cc3ccccc3)Cc3cnc(Nc4cn(C)nc4Cl)nc32)C1` (single isomer, unassigned) [Compound 39], the results for the IC50 at EGFR (T790M/L858R) and in the experiment with A431 cells were 112 nM and at least 10000 nM, respectively. The EC50 in experiment [1] was 637 nM. The GI50 is at least 10000 nM in experiment [2] and 9350 nM in experiment [3].
For the molecule `CN(C)C/C=C/C(=O)Nc1cccc(N2C(=O)N(Cc3ccc(F)cc3)Cc3cnc(Nc4cnn(C)c4)nc32)c1` [Compound 2, (E)-4-(dimethylamino)-N-(3-(3-(4-fluorobenzyl)-7-((1-methyl-1H-pyrazol-4-yl)amino)-2-oxo-3,4-dihydropyrimido[4,5-d]pyrimidin-1(2H)-yl)phenyl)but-2-enamide], the values for the IC50 at EGFR (T790M/L858R) and in the experiment with A431 cells were 2 nM and 615 nM, respectively. For the same molecule, in experiment [1], the EC50 was determined as 19.7 nM. For the same molecule, the GI50 in experiment [2] stood at 414 nM; in experiment [3] it was 893 nM.
`C=CC(=O)Nc1cccc(N2C(=O)N(Cc3ccccc3)Cc3cnc(Nc4cnn(C5CC5)c4)nc32)c1` [Compound 5, N-(3-(3-benzyl-7-((1-cyclopropyl-1H-pyrazol-4-yl)amino)-2-oxo-3,4-dihydropyrimido[4,5-d]pyrimidin-1(2H)-yl)phenyl)acrylamide]: the IC50 on EGFR (T790M/L858R) stood at 1 nM. Further, in experiment [1], the EC50 was 5.7 nM.
For `CN(C)C/C=C/C(=O)Nc1cccc(N2C(=O)N(Cc3ccccc3)Cc3cnc(Nc4cnn(C5CC5)c4)nc32)c1` [Compound 7, (E)-N-(3-(3-benzyl-7-((1-cyclopropyl-1H-pyrazol-4-yl)amino)-2-oxo-3,4-dihydropyrimido[4,5-d]pyrimidin-1(2H)-yl)phenyl)-4-(dimethylamino)but-2-enamide], in that order: 6 nM and 9.3 nM.
For `C=CC(=O)Nc1cccc(N2C(=O)N(c3ccc(F)cc3)Cc3cnc(Nc4cnn(C)c4)nc32)c1` [Compound 17, N-(3-(3-(4-fluorophenyl)-7-((1-methyl-1H-pyrazol-4-yl)amino)-2-oxo-3,4-dihydropyrimido[4,5-d]pyrimidin-1(2H)-yl)phenyl)acrylamide], in that order: 0.5 nM and 0.7 nM.
Consider `Cc1cnc(Nc2ncc3c(n2)N(c2cccc(NC(=O)/C=C/CN(C)C)c2)C(=O)N(Cc2ccccc2)C3)s1` [Compound 19, (E)-N-(3-(3-benzyl-7-((5-methylthiazol-2-yl)amino)-2-oxo-3,4-dihydropyrimido[4,5-d]pyrimidin-1(2H)-yl)phenyl)-4-(dimethylamino)but-2-enamide], for which, on EGFR (T790M/L858R), the IC50 came to 6 nM. Moreover, the EC50 in experiment [1] came out at 16 nM.
On the same counts, the results for `CN(C)C/C=C/C(=O)Nc1cccc(N2C(=S)N(c3ccccc3)Cc3cnc(Nc4cn(C)nc4Cl)nc32)c1` [Compound 51, (E)-N-(3-(7-((3-chloro-1-methyl-1H-pyrazol-4-yl)amino)-3-phenyl-2-thioxo-3,4-dihydropyrimido[4,5-d]pyrimidin-1(2H)-yl)phenyl)-4-(dimethylamino)but-2-enamide] are 8 nM and 9.8 nM.
In the case of `C=CC(=O)Nc1ccc(F)c(N2C(=O)N(c3ccccc3)Cc3cnc(Nc4cn(C)nc4Cl)nc32)c1` [Compound 128, N-(3-(7-((3-chloro-1-methyl-1H-pyrazol-4-yl)amino)-2-oxo-3-phenyl-3,4-dihydropyrimido[4,5-d]pyrimidin-1(2H)-yl)-4-fluorophenyl)acrylamide trifluoroacetate salt], the IC50 in the experiment with A431 cells is at least 10000 nM. Also, the GI50 in experiment [2] was 11 nM; in experiment [3], 12 nM; in experiment [4] it was 24 nM.
On the same counts, the results for `C=CC(=O)Nc1cccc(N2C(=O)N(c3ccccc3)Cc3cnc(Nc4cn(C5CCC(O)CC5)nc4Cl)nc32)c1` (centres unmarked) [Compound 129, N-(3-(7-((3-chloro-1-(4-hydroxycyclohexyl)-1H-pyrazol-4-yl)amino)-2-oxo-3-phenyl-3,4-dihydropyrimido[4,5-d]pyrimidin-1(2H)-yl)phenyl)acrylamide trifluoroacetate salt] are at least 10000 nM, 157 nM, 333 nM and 312 nM.
On the same counts, the results for `C=CC(=O)Nc1ccc(N2C(=O)N(c3ccccc3)Cc3cnc(Nc4cn(C)nc4Cl)nc32)cc1` [Compound 131, N-(4-(7-((3-chloro-1-methyl-1H-pyrazol-4-yl)amino)-2-oxo-3-phenyl-3,4-dihydropyrimido[4,5-d]pyrimidin-1(2H)-yl)phenyl)acrylamide] are 3510 nM, 373 nM, 765 nM and 1130 nM.
On the same counts, the results for `O=C(/C=C/CF)Nc1cccc(N2C(=O)N(c3ccccc3)Cc3cnc(Nc4cccnc4F)nc32)c1` [Compound 135, (E)-4-fluoro-N-(3-(7-((2-fluoropyridin-3-yl)amino)-2-oxo-3-phenyl-3,4-dihydropyrimido[4,5-d]pyrimidin-1(2H)-yl)phenyl)but-2-enamide] are over 10000 nM, 43 nM, 120 nM and 294 nM.
Consider `C=CC(=O)Nc1cccc(N2C(=O)N(c3ccccc3)Cc3cnc(Nc4cn(C5COC5)nc4Cl)nc32)c1` [Compound 136, N-(3-(7-((3-chloro-1-(oxetan-3-yl)-1H-pyrazol-4-yl)amino)-2-oxo-3-phenyl-3,4-dihydropyrimido[4,5-d]pyrimidin-1(2H)-yl)phenyl)acrylamide], for which the IC50 in the experiment with A431 cells is over 10000 nM. Also, the GI50 in experiment [2] is 15 nM; in experiment [3] it was 29 nM; in experiment [4] it was 63 nM.
